Measured values as given in patent USRE49444E1, “Method of treating osteoporosis comprising administration of PTHrP analog” (priority 2006, dated 2023).
Like-named read-outs stand apart in the source and are kept apart here.

Assays:
Staphylococcus aureus = test: Preservative effectiveness test, plate-count method; type: cell-based; details: after 3 and 4.5 months storage
[1] = system: Bacteria and Yeasts/moulds; test: Preservative effectiveness test (European Pharmacopoeia 5.1.3), overall result; type: cell-based; details: for preservative efficacy: after 3 and 4.5 months storage; for Preservative effectiveness test Results: after manufacturing
Procedure: (§1) Solutions were prepared at room temperature, by dissolution of the various ingredients in water for injection, with stirring over <30 minutes to ensure complete dissolution, Solutions were filtered through 0.2 micron filter and filled into glass vials, to which a rubber stopper was applied and crimped in place to ensure complete closure.
The solutions were then stored for up to 3 months at 25° C., and up to 4.5 months at 5° C. and the preservative effectiveness test repeated. as described in Example 5.

[2] = system: serum PD markers (total and ionized calcium, phosphorus, PTH(1-84), 1,25-dihydroxyvitamin D, P1NP, CTX); type: in vivo, human
Source text: Predose Days: Days −30 and −2
PTH(1-84) and 1,25-dihydroxyvitamin D (vitamin D):
Procollagen Type 1 N-Propeptide (P1NP) and C-Telopeptide
Predose (Day −2), Days 3, 8, and 14.
(§2) The data for each PD marker in serum (total and ionized calcium, phosphorus, PTH(1-84), 1,25-dihydroxyvitamin D, P1NP, and CTX) and in urine (calcium, phosphorus, c-AMP, and creatinine) following SEQ ID NO.: 2 and placebo doses were listed for each subject and summarized by SEQ ID NO.: 2 dose using descriptive statistics (mean, SD, CV %, SEM, N, min, max, and median).

clinical = details: human, in vivo; for AUC: AUC0-tau
Procedure: (§3) A randomized, double-blind, placebo-controlled, multiple-dose design study of Glu^22,25, Leu^23,28,31, Aib^29, Lys^263]hPTHrP(1-34)NH2 (SEQ ID NO.: 2) was conducted at 2 sites. A total of 39 eligible subjects were sequentially enrolled into 1 of 4 study groups consisting of 10 subjects each, with the exception of Group 2, which had 9 subjects. Within each study group, 8 subjects were randomly assigned to receive SEQ ID NO.: 2 and 2 subjects were randomly assigned to receive placebo (In Group 2 only, 1 subject received placebo). All subjects in the study were judged by the investigator to be healthy, normal volunteers. The test products were Glu^22,25, Leu^23,28,31, Aib^29, Lys^26,30]hPTHrP(1-34)NH2 (SEQ ID NO.: 2) (0.1 mg/vial) and Placebo (0.9% sodium chloride injection, USP). All subjects received a single subcutaneous (SC) dose of Glu^22,25, Leu^23,28,31, Aib^29, Lys^26,30]hPTHrP(1-34)NH2 (SEQ ID NO.: 2) or placebo for 7 days.
(§4) Criteria for Evaluation: Pharmacokinetics: PK sampling for plasma SEQ ID NO.: 2 on Days 1 and 7 was performed at the following time points: Predose (0 hour), 0.25, 0.5, 1, 1.5, 2, 3, 4, 6, 8, 12, and 24 hours postdose. Additionally, predose samples were taken for trough drug analysis on Days 3 to 6. The following PK parameters were computed for Days 1 and 7: AUC(0-t), AUC(0-∞) (Day 1 only), AUC(0-τ), AUCR (Day 1 only), Cmax, Tmax, Tlast, CL/F, Kel, t1/2, and AI (Day 7 only). These parameters were calculated from the overall (24 hours) plasma concentration-versus-time profiles by noncompartmental methods using WinNonlin® Pro Version 5.01 and SAS® Version 8.2. Moreover, the ln-transformed PK parameters Cmax, AUC(0-t), AUC(0-τ), and AUC(0-∞) are presented.
(§5) Plasma concentration and PK parameters for SEQ ID NO.: 2 were listed by subject and summarized by treatment and day using descriptive statistics (mean, standard deviation [SD], coefficient of variation [CV %], standard error of the mean [SEM], sample size [N], minimum [min], maximum [max], and median). Additionally, geometric means and ln-transformed values were provided for Cmax and AUCs. Dose proportionality was evaluated for Days 1 and 7 SEQ ID NO.: 2 data using the following power model: Ln(Y)=β0+β Ln Dose+ε where Y represents the PK parameters AUC(0-28), AUC(0-τ), AUC(0-t), and Cmax. Dose proportionality requires that β=1 for dose-dependent parameters.
(§6) The model was used to calculate the 95% confidence intervals (CI) for the slope of the ln-transformed PK parameters AUCs and Cmax. Dose proportionally was concluded if the 95% CI for the PK parameters included the value of 1.
(§7) For those cases in which dose proportionality could not be concluded within all doses investigated, dose proportionality analysis was performed for the first 3 (by excluding the highest dose) and the last 3 doses (by excluding the lowest dose).

[3] = human, in vivo
Procedure: as §3, §4, §5, §6, §7

[4] = Chemical stability of different formulations (SEQ ID NO.: 2 content); type: physicochemical; details: Table 6 formulations
Procedure: as §1
Table 6 details the chemical stability of the formulations described in Example 4.

[5] = system: urine PD markers (calcium, phosphorus, c-AMP, creatinine); test: Clinical study: pharmacodynamic markers in urine; type: in vivo, human
Procedure: Urine PD Samples (Calcium Phosphorus Cyclic AMP [c-AMP], and Creatinine) were Obtained at the Following Time Points:
Day −1/Day 1: −24 to −18 hours, −18 to −12 hours, and −12 hours to 0 hours.
Days 1 and 7: 0 to 6 hours, 6 to 12 hours, and 12 to 24 hours.
The following parameters in urine were presented for each of the PD markers using SAS® Version 8.2: Volume (Vol.), concentration (Conc.), amount (Ae), cumulative amount (Cum. Ae), and excretion rates.
as §2

With OCc1ccccc1 [Benzyl Alcohol] the “rate of kill against S Aureus” value (Staphylococcus aureus) was “insufficient rate of kill”, the preservative efficacy [1] was “not compliant” and the “Preservative effectiveness test Results” value [1] was “compliant”.
For Oc1ccccc1 [Phenol], the preservative efficacy [1] was “maintained” and the “Preservative effectiveness test Results” value [1] was “compliant”.
For CC[C@H](C)[C@H](NC(=O)[C@H](CO)NC(=O)[C@H](CCCCN)NC(=O)CNC(=O)[C@H](CCCCN)NC(=O)[C@H](CC(=O)O)NC(=O)[C@H](Cc1cnc[nH]1)NC(=O)[C@H](CC(C)C)NC(=O)[C@H](CC(C)C)NC(=O)[C@H](CCC(N)=O)NC(=O)[C@H](Cc1cnc[nH]1)NC(=O)[C@H](CCC(=O)O)NC(=O)[C@H](CO)NC(=O)[C@@H](NC(=O)[C@H](C)N)C(C)C)C(=O)N[C@@H](CCC(N)=O)C(=O)N[C@@H](CC(=O)O)C(=O)N[C@@H](CC(C)C)C(=O)N[C@@H](CCCNC(=N)N)C(=O)N[C@@H](CCCNC(=N)N)C(=O)N[C@@H](CCCNC(=N)N)C(=O)N[C@@H](CCC(=O)O)C(=O)N[C@@H](CC(C)C)C(=O)N[C@@H](CC(C)C)C(=O)N[C@@H](CCC(=O)O)C(=O)N[C@@H](CCCCN)C(=O)N[C@@H](CC(C)C)C(=O)N[C@@H](CC(C)C)C(=O)NC(C)(C)C(=O)N[C@@H](CCCCN)C(=O)N[C@@H](CC(C)C)C(=O)N[C@@H](Cc1cnc[nH]1)C(=O)N[C@H](C(=O)N[C@@H](C)C(N)=O)[C@@H](C)O [SEQ ID NO.: 2, [Glu^22,25, Leu^23,28,31, Aib^29, Lys^26,30]hPTHrP(1-34)NH2], the “P1NP concentrations in serum, maximum increase above baseline” value ([2]; 80 μg dose, Days 3, 8, and 14) was “up to 18±12 ng/mL”, the “1,25-dihydroxyvitamin D concentrations in serum” value ([2]; 40 and 80 μg doses, after 2 hours postdose on Day 1 and most of the time on Day 7) was “steadily rose above the predose levels” and the “serum phosphorus concentrations versus placebo” value ([2]; Days 1 and 7) was “below the placebo concentration levels”. For the same molecule, the “Serum PTH (1-84) concentrations” value ([2]; Days 1 and 7, during most of the sampling times) was “remained below the predose levels and placebo dose”, the “Total calcium concentrations in serum versus reference range” value ([2]; human, in vivo) was “remained within the reference range” and the half-life (clinical; mean t1/2) was 1.05 to 2.59 h. For the same molecule, the AUC(0-inf) (clinical; sc, 5 ug) was 0.187 ± 0.0545 ng·h/mL, the AUC0-t (clinical; sc, 5 ug) was 0.0784 ± 0.0455 ng·h/mL and the AUC (clinical; sc, 5 ug) was 0.187 ± 0.0544 ng·h/mL. For the same molecule, the CL/F (clinical; sc, 5 ug) was 476 mL/min, the Cmax (clinical; sc, 5 ug) was 0.0431 ± 0.0107 ng/mL and the Tmax (clinical; sc, 5 ug) was 0.566 h. It also gave a half-life (clinical; sc, 5 ug, t1/2) of 2.59 ± 0.69 h, an AUC(0-inf) (clinical; sc, 20 ug) of 0.257 ± 0.119 ng·h/mL and an AUC0-t (clinical; sc, 20 ug) of 0.161 ± 0.111 ng·h/mL. For the same molecule, the AUC (clinical; sc, 20 ug) was 0.257 ± 0.119 ng·h/mL, the CL/F (clinical; sc, 20 ug) was 1570 mL/min and the Cmax (clinical; sc, 20 ug) was 0.115 ± 0.0539 ng/mL. For the same molecule, the Tmax (clinical; sc, 20 ug) was 0.296 h, the half-life (clinical; sc, 20 ug, t1/2) was 1.05 ± 0.314 h and the AUC(0-inf) (clinical; sc, 40 ug) was 0.593 ± 0.281 ng·h/mL. The AUC0-t (clinical; sc, 40 ug) was 0.42 ± 0.275 ng·h/mL, the AUC (clinical; sc, 40 ug) was 0.593 ± 0.281 ng·h/mL and the CL/F (clinical; sc, 40 ug) was 1400 mL/min. For the same molecule, the Cmax (clinical; sc, 40 ug) was 0.223 ± 0.099 ng/mL, the Tmax (clinical; sc, 40 ug) was 0.494 h and the half-life (clinical; sc, 40 ug, t1/2) was 1.65 ± 0.254 h. The AUC(0-inf) (clinical; sc, 80 ug) was 1.06 ± 0.514 ng·h/mL, the AUC0-t (clinical; sc, 80 ug) was 0.95 ± 0.494 ng·h/mL and the AUC (clinical; sc, 80 ug) was 1.05 ± 0.511 ng·h/mL. The CL/F (clinical; sc, 80 ug) was 1580 mL/min, the Cmax (clinical; sc, 80 ug) was 0.31 ± 0.0543 ng/mL and the Tmax (clinical; sc, 80 ug) was 0.752 h. The half-life (clinical; sc, 80 ug, t1/2) was 2.3 ± 0.715 h, the Apparent clearance ([3]; 80 ug) was 82.74 to 103.9 L/h and the “Dose proportionality Slope, AUC (0-inf)” value ([3]; 80 ug) was 0.9957. The “Dose proportionality Slope, AUC (0-t)” value ([3]; 80 ug) was 0.9071, the “Dose proportionality Slope, AUC (0-tau)” value ([3]; 80 ug) was 1.141 and the “increases in PK parameters Cmax, AUC(0-f), AUC(0-τ), AUC(0-∞) with dose” value ([3]; 80 ug) was “dose-proportional”. For the same molecule, the AUC0-t ([3]; sc, 5 ug) was 0.080704 ± 0.030441 ng·h/mL, the AUCR ([3]; sc, 5 ug) was 0.521 ± 0.111 and the CL/F ([3]; sc, 5 ug) was 28.56 L/h. For the same molecule, the Cmax ([3]; sc, 5 ug) was 0.0408 ± 0.00763 ng/mL, the Tmax ([3]; sc, 5 ug) was 1.05 (0.514, 1.53) hr and the “ln (AUC0-inf)” value ([3]; sc, 5 ug) was 5.200 ± 0.3016. For the same molecule, the “ln (AUC0-tau)” value ([3]; sc, 5 ug) was 5.198 ± 0.3007, the AUC0-t ([3]; sc, 20 ug) was 0.17158 ± 0.082031 ng·h/mL and the AUC0-tau ([3]; sc, 20 ug) was 0.2282 ± 0.095154 ng·h/mL. It also gave an AUCR ([3]; sc, 20 ug) of 0.828 ± 0.0449, a CL/F ([3]; sc, 20 ug) of 103.9 ± 53.01 L/h and a Cmax ([3]; sc, 20 ug) of 0.109 ± 0.0192 ng/mL. The Tmax ([3]; sc, 20 ug) was 0.512 (0.250, 3.05) hr, the “ln (AUC0-inf)” value ([3]; sc, 20 ug) was 5.456 ± 0.4957 and the t1/2 ([3]; sc, 20 ug) was 1.05 ± 0.244 h. The AUC0-t ([3]; sc, 40 ug) was 0.40798 ± 0.2197 ng·h/mL, the AUC0-tau ([3]; sc, 40 ug) was 0.48188 ± 0.22619 ng·h/mL and the AUCR ([3]; sc, 40 ug) was 0.838 ± 0.0703. For the same molecule, the CL/F ([3]; sc, 40 ug) was 102.0 ± 53.34 L/h, the Cmax ([3]; sc, 40 ug) was 0.207 ± 0.0777 ng/mL and the Tmax ([3]; sc, 40 ug) was 0.492 (0.349, 1.00) hr. The “ln (AUC0-inf)” value ([3]; sc, 40 ug) was 6.280 ± 0.5203, the t1/2 ([3]; sc, 40 ug) was 1.43 ± 0.397 h and the AUC0-t ([3]; sc, 80 ug) was 1.003 ± 0.38345 ng·h/mL. For the same molecule, the AUC0-tau ([3]; sc, 80 ug) was 1.0803 ± 0.40857 ng·h/mL, the AUCR ([3]; sc, 80 ug) was 0.892 ± 0.0369 and the CL/F ([3]; sc, 80 ug) was 82.74 ± 26.95 L/h. For the same molecule, the Cmax ([3]; sc, 80 ug) was 0.436 ± 0.0688 ng/mL, the Tmax ([3]; sc, 80 ug) was 0.507 (0.500, 1.00) hr and the “ln (AUC0-inf)” value ([3]; sc, 80 ug) was 6.855 ± 0.5063. For the same molecule, the t1/2 ([3]; sc, 80 ug) was 1.69 ± 0.425 h, the “solution stability, influence of the preservative” value [4] was “not significantly influenced by the preservative selected” and the “mean urinary excretion rates of calcium” value ([5]; Day 1) was “approximately at predose levels”. The “Mean urinary excretion rates of c-AMP” value ([5]; Days 1 and 7) was “increased”, the “Mean urinary excretion rates of creatinine” value ([5]; Days 1 and 7) was “fluctuated around the predose levels” and the “Mean urinary excretion rates of phosphorus” value ([5]; Days 1 and 7) was “fluctuated around the predose levels”.
